Source: patent US11478471B2, “Methods and compositions for treating diabetes, metabolic syndrome and other conditions” (priority 2005, dated 2022)
Converted amounts (≈) assume the structure as drawn. Where two headings read alike, the source gives them in different places.

Columns and labels:
[1] = test system: CYP7A (cholesterol 7α hydroxylase); assay: Inhibition of CYP7A, cholesterol 7α-hydroxylase activity (Rotstein et al. 1992); conditions: assuming intrahepatic concentration approximately 20% of total plasma concentration
[2] = test system: P450 2B1, 2B2, 1A1, 2C11, 3A; conditions: read-out: IC50, progesterone 16α hydroxylase (2B1, 2B2, 1A1, 2C11, 3A); Rotstein et al. 1992; cited from earlier work
Candida albicans = assay: Antifungal MIC; format: cell-based
Issatchenkia orientalis = assay: Antifungal MIC; format: cell-based; conditions: Pichia kudriavzevii, read-out: MIC
[3] = dog, in vivo, 40 mg/kg
Description: As a control, a separate set of 2 male and 2 female dogs was treated with vehicle.

P450 2C6 = P450 2C6 (Rattus norvegicus, UniProt P05178); conditions: Rotstein et al. 1992; read-out: IC50, progesterone 21 hydroxylase (2C6); cited from earlier work
[4] = dog, in vivo, po, 40 mg/kg/day
[5] = cited from earlier work; for AUC 0-12 / Cmax / T ½: humans
[6] = 28 day GLP toxicity study in dogs; conditions: 28 days
Candida parapsilosis = assay: Antifungal MIC; format: cell-based; conditions: Lodderomyces parapsilosis, read-out: MIC
cholesterol levels = assay: Cholesterol levels in rats after oral dosing; format: in vivo, Sprague Dawley rats; conditions: single oral 200 mg/kg
Description: The rats were maintained as described above; the drugs were suspended in olive oil, and each rat was dosed once via gastric tube to achieve a dose of 200 mg/kg. All of the rats were dosed at a specific time so that all terminations occurred between 6 and 7 pm. […] Following sacrifice, plasma was prepared, and the concentration of corticosterone in the plasma was determined by ELISA. In the same plasma samples, total cholesterol levels were also determined.

P450 4A = conditions: read-out: IC50, lauric acid hydroxylase (4A); Rotstein et al. 1992; cited from earlier work
[7] = following fifth 200 mg dose of racemic ketoconazole (every twelve hours)
[8] = following first 200 mg dose of racemic ketoconazole
[9] = normal volunteers, 200 mg dose of the racemic mixture

Sequence of P450 2C6 (P05178 whole entry): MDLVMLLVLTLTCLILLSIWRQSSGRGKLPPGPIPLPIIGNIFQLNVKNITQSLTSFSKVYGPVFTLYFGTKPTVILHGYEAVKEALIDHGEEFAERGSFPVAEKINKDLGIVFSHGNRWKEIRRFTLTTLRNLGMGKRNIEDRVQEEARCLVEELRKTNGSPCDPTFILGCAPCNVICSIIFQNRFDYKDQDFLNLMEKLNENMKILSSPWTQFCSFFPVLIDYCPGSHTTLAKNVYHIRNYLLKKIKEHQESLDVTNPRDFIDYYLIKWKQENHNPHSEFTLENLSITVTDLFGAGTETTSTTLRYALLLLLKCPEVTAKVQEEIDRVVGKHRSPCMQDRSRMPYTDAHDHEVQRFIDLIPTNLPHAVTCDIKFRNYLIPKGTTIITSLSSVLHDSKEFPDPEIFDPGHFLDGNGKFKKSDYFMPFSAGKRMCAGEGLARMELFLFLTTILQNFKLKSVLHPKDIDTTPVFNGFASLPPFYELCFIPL

SMILES: CC(=O)N1CCN(c2ccc(OC[C@@H]3CO[C@@](Cn4ccnc4)(c4ccc(Cl)cc4Cl)O3)cc2)CC1 [DIO-902, 2S,4R cis-1-acetyl-4-[4-[[2-(2,4-dichlorophenyl)-2-(1H-imidazol-1-ylmethyl)-1,3-dioxolan-4-yl]methoxyl]phenyl]piperazine]
- total plasma concentration required to inhibit intrahepatic CYP7A [1]: 12 microM and approximately 6.3 microg/mL
- IC50 [2]: 84 µM
- MIC (Candida albicans; DSM11225, DSM strain 11225, 48 h, read-out: MIC): < 0.015 µg/mL
- MIC (Candida albicans; DSM11943, DSM strain 11943, 48 h, read-out: MIC): < 0.015 µg/mL
- MIC (Candida albicans; DSM11944, DSM strain 11944, 48 h, read-out: MIC): < 0.015 µg/mL
- MIC (Candida albicans; DSM11945, DSM strain 11945, 48 h, read-out: MIC): 0.03 µg/mL (≈ 0.0565 µM)
- MIC (Candida albicans; DSM11948, DSM strain 11948, 48 h, read-out: MIC): < 0.015 µg/mL
- MIC (Candida albicans; DSM11949, 48 h): 0.125 µg/mL (≈ 0.235 µM)
- MIC (Candida albicans; strain 98-St-00799, 48 h, read-out: MIC): < 0.015 µg/mL
- MIC (Issatchenkia orientalis; DSM11956, DSM strain 11956, 48 h): 0.25 µg/mL (≈ 0.47 µM)
- MIC (Issatchenkia orientalis; DSM11958, DSM strain 11958, 48 h): 1 µg/mL (≈ 1.88 µM)
- clinical signs [3]: vomiting
- IC50 (P450 2C6): 9 µM
- reduction in total white cell numbers [4]: 20%
- AUC 0-12 [5, 7]: 538 ± 74 µg·min/mL
- Cmax [5, 7]: 1530 ± 190 ng/mL
- T ½ [5, 7]: 3.62 ± 0.5 h
- AUC 0-12 [5, 8]: 302 ± 38 µg·min/mL
- Cmax [5, 8]: 1060 ± 130 ng/mL
- T ½ [5, 8]: 2.22 ± 0.233 h
- maximum plasma concentration [5, 9]: approximately 3.6 μg/mL
- time of maximum plasma concentration [5, 9]: 2 h
- QTc ([6]; dogs, 20 mg/kg/day): no obvious QTc prolongation
- food eaten less than placebo control group ([6]; dogs, 20 mg/kg/day): 25-35%
- body weight gain ([6]; dogs, 20 mg/kg/day, females (placebo 0.9 kg)): 0.14 kg
- body weight gain ([6]; dogs, 20 mg/kg/day, males (placebo 1.1 kg)): 0.25 kg
- change in serum chemistry measures ([6]; dogs, 2, 6.5, 20 mg/kg/day): reduction in cholesterol
- hematology ([6]; dogs, 2, 6.5, 20 mg/kg/day): no hematological changes noted
- ophthalmological and electrocardiographic parameters ([6]; dogs, 2, 6.5, 20 mg/kg/day): no measurable effects
- microscopic findings ([6]; dogs, any dose): no remarkable microscopic findings
- MIC (Candida parapsilosis; DSM05784, DSM strain 05784, 48 h): 0.03 µg/mL (≈ 0.0565 µM)
- MIC (Candida parapsilosis; DSM11224, DSM strain 11224, 48 h): 0.03 µg/mL (≈ 0.0565 µM)
- Cholesterol Levels (mean ± SEM) (cholesterol levels; 4 h): 69.6 ± 1.9 mg/dL
- Cholesterol Levels (mean ± SEM) (cholesterol levels; 8 h): 73.5 ± 3.1 mg/dL
- Cholesterol Levels (mean ± SEM) (cholesterol levels; 12 h): 77.3 ± 3.9 mg/dL
- Cholesterol Levels (mean ± SEM) (cholesterol levels; 16 h): 61.9 ± 3.1 mg/dL
- Cholesterol Levels (mean ± SEM) (cholesterol levels; 20 h): 58 ± 1.2 mg/dL
- Cholesterol Levels (mean ± SEM) (cholesterol levels; 24 h): 61.9 ± 3.1 mg/dL
- IC50 (P450 4A): > 100 µM
